Measured values taken from ChEMBL document CHEMBL1136356, “Rational design of antimicrobial agents: antifungal activity of alk(en)yl dihydroxybenzoates and dihydroxyphenyl alkanoates” (Bioorg Med Chem Lett, 2003).
In brackets after ≈: the same amount, converted by molar mass.

How the values were obtained:
Saccharomyces cerevisiae [1] = experiment: microbe, parasite or virus in culture; details: ATCC 7754
Description: (§1) Antifungal activity against Saccharomyces cerevisiae ATCC 7754

Saccharomyces cerevisiae [2] = experiment: microbe, parasite or virus in culture; details: ATCC 7754; remark: listed apart in the source
Description: as §1

physchem = details: octanol/water
Description: Partition coefficient (logP)

MIC (Saccharomyces cerevisiae [2]) [µg/mL] | logP (physchem) | SMILES | MFC (Saccharomyces cerevisiae [1]) [µg/mL]
25 (≈ 89.2 µM) | 4.3 | CCCCCCCC(C)OC(=O)c1ccc(O)c(O)c1 (configuration not stated) | 25 (≈ 89.2 µM)
200 (≈ 951 µM) | 2.32 | CCCCOC(=O)c1ccc(O)c(O)c1 | 400 (≈ 1900 µM)
6.25 (≈ 22.5 µM) | 4.22 | CCCCCC/C=C/COC(=O)c1ccc(O)c(O)c1 | 6.25 (≈ 22.5 µM)
25 (≈ 77.1 µM) | 4.83 | CCCCCCCCCCCOC(=O)c1cc(O)cc(O)c1O | 25 (≈ 77.1 µM)
50 (≈ 200 µM) | 3.05 | O=C(OCC1CCCCC1)c1ccc(O)c(O)c1 | 50 (≈ 200 µM)
12.5 (≈ 44.6 µM) | 4.37 | CCCCCCC(CC)OC(=O)c1ccc(O)c(O)c1 (configuration not stated) | 12.5 (≈ 44.6 µM)
> 400 | 5.24 | CCCCCCCCCCCOC(=O)c1ccc(O)c(O)c1 | > 400
200 (≈ 745 µM) | 3.16 | CCCCCCCOC(=O)c1cc(O)cc(O)c1O | 200 (≈ 745 µM)
12.5 (≈ 40.3 µM) | 4.42 | CCCCCCCCCCOC(=O)c1cc(O)cc(O)c1O | 25 (≈ 80.5 µM)
25 (≈ 86.1 µM) | 3.62 | O=C(OC1CCC2CCCCC2C1)c1ccc(O)c(O)c1 (configuration not stated) | 25 (≈ 86.1 µM)
> 400 | 1.9 | CCCOC(=O)c1ccc(O)c(O)c1 | > 400
> 400 | 5.25 | CCCCCCCCCCCCOC(=O)c1cc(O)cc(O)c1O | > 400
> 400 | 5.67 | CCCCCCCCCCCCCOC(=O)c1cc(O)cc(O)c1O | > 400
50 (≈ 172 µM) | 3.78 | CC1(C)C2CCC1(C)C(OC(=O)c1ccc(O)c(O)c1)C2 (configuration not stated) | 50 (≈ 172 µM)
100 (≈ 446 µM) | 2.73 | CCCCCOC(=O)c1ccc(O)c(O)c1 | 100 (≈ 446 µM)
50 (≈ 177 µM) | 3.58 | CCCCCCCCOC(=O)c1cc(O)cc(O)c1O | 100 (≈ 354 µM)
12.5 (≈ 42.8 µM) | 4.1 | CC1CCC(C(C)C)C(OC(=O)c2ccc(O)c(O)c2)C1 (configuration not stated) | 12.5 (≈ 42.8 µM)
6.25 (≈ 22.5 µM) | 4.22 | CCCCCC/C=C\COC(=O)c1ccc(O)c(O)c1 | 6.25 (≈ 22.5 µM)
12.5 (≈ 43.1 µM) | 3.84 | CC(C)=CCC/C(C)=C/COC(=O)c1ccc(O)c(O)c1 | 12.5 (≈ 43.1 µM)
12.5 (≈ 43.1 µM) | 3.84 | CC(C)=CCC/C(C)=C\COC(=O)c1ccc(O)c(O)c1 | 25 (≈ 86.1 µM)
25 (≈ 84.4 µM) | 4 | CCCCCCCCCOC(=O)c1cc(O)cc(O)c1O | 25 (≈ 84.4 µM)
12.5 (≈ 49.5 µM) | 3.57 | CCCCCCCOC(=O)c1ccc(O)c(O)c1 [HEPTYL 3,4-DIHYDROXYBENZOATE] | 12.5 (≈ 49.5 µM)
25 (≈ 105 µM) | 3.15 | CCCCCCOC(=O)c1ccc(O)c(O)c1 [HEXYL 3,4-DIHYDROXYBENZOATE] | 25 (≈ 105 µM)
6.25 (≈ 22.3 µM) | 4.4 | CCCCCCCCCOC(=O)c1ccc(O)c(O)c1 [NONYL 3,4-DIHYDROXYBENZOATE] | 1.25 (≈ 4.46 µM)
6.25 (≈ 23.5 µM) | 3.99 | CCCCCCCCOC(=O)c1ccc(O)c(O)c1 [OCTYL 3,4-DIHYDROXYBENZOATE] | 12.5 (≈ 46.9 µM)

SMILES | MIC (Saccharomyces cerevisiae [2]) [µg/mL] | logP (physchem) | MFC (Saccharomyces cerevisiae [1]) [µg/mL]
Clc1ccc(COC(Cn2ccnc2)c2ccc(Cl)cc2Cl)c(Cl)c1 (configuration not stated) [MICONAZOLE] | 6.25 (≈ 15 µM) |  | 50 (≈ 120 µM)
